In patent publication US8530508B2, “Thrombopoietin receptor agonist (TpoRA) kills acute human myeloid leukemia cells” (GlaxoSmithKline LLC, priority 2007, dated 2013):

Assays:
[1] = system: STAT5, ERK, p70S6, S6 ribosomal protein in human progenitor cells CD34+; assay: Western blot analysis of kinase phosphorylation in CD34+ cells; type: cell-based; conditions: rhTPO 2.8 μM or Compound A 5 μM
Procedure: (§1) Controls and cells stimulated with rhTPO or Compound A were washed twice in PBS, then pelleted. The pellet was dissolved in triple-lysis buffer comprised of 50 mM TRIS, 150 mM NaCl, 0.02% sodium azide, 0.1% sodium dodecyl sulphate (SDS) and 1% Igepal (Sigma, St. Louis, Mo.), and then incubated for 30 min on ice with vortexing every 10 min. The lysate was then spun at maximum speed in a microcentrifuge at 4° C. for 10 min. The extracted cell supernatant was used for Western-blot analysis.
(§2) Protein concentration was determined by a Bradford protein assay (Bio-Rad, Hercules, Calif.). A total of 150 μg protein extract was resolved on a 10% polyacrylamide gel (150V, 60 min.) then transferred to a poly vinylidene fluoride (PVDF) membrane (25V, 60 min). Condensed milk (5%) was used as a blocking solution. The membrane was incubated overnight at 4° C. with primary antibody at a 1:1000 dilution. After incubation, the membrane was washed three times in TBS-T buffer and probed with secondary HRP-conjugated antibody (Amersham Biosciences; Piscataway, N.J.) at dilution 1:1000 for 2 hour at room temperature. All antibodies were purchased from Cell Signaling Technology (Danvers, Mass.).
The effect of Compound A on phosphorylation of kinases known to be important in the Tpo signaling pathway was examined. Kinases evaluated include STAT5, ERK, p70S6, and ribosomal kinase S6. […] The same experiment was performed on human progenitor cells CD34+, which are stimulated by Compound A to differentiate into the megakaryocytes.

[2] = system: primary cells from AML patient 774; assay: Annexin V / propidium iodide apoptosis assay, primary AML cells; type: cell-based, human; conditions: AML patient 774, 72 hours; vs control and Tpo+DMSO
From the text: (§3) Annexin-V is a phospholipid binding protein with a high affinity for phosphatidylserine (PS). Annexin V will not bind normal, intact cells, but necrotic cells are leaky enough to give Annexin V access to inner membrane PS. Propidium iodide stains DNA. The assay therefore identifies cells undergoing apoptosis.
(§4) Primary cells were isolated from either an AML (patient 774; top row) or ALL (patient 710; bottom row) patient. The cells were then exposed to either control solution (left pair of panels), rhTpo+DMSO (middle pair of panels), or SB559457 (right pair of panels) for 72 hours.

[3] = system: primary cells from patients with chronic myelogenous leukemia (CML); assay: Proliferation of primary CML cells; type: cell-based, human; conditions: CML patient samples
Procedure: (§5) Human primary leukemia cells were obtained from Stem Cell and Leukemia Core at the University of Pennsylvania. Cells were cultured in EGM-2 (Endothelial Cell Medium-2, Cambrex; East Rutherford, N.J.). All cells were cultured in humidified incubator at 37° C. and 5% CO2.
(§6) Samples were obtained from 18 patients with acute myelogenous leukemia (AML), 7 patients with acute lymphocytic leukemia (ALL) and 3 patients with chronic myelogenous leukemia (CML). In 17 out of 18 tested AML samples, Compound A inhibited cell proliferation 70-90% when compared to untreated controls or cells cultured with rhTPO (FIG. 2A).

[4] = system: primary cells from ALL patient 710; assay: Annexin V / propidium iodide apoptosis assay, primary ALL cells; type: cell-based, human; conditions: ALL patient 710, 72 hours
From the text: as §3, §4

[5] = system: GAPDH and Redd1 mRNA in primary AML cells; assay: Quantitative real time PCR of GAPDH and Redd1 in primary AML cells; type: cell-based, human; conditions: primary AML samples, 6 hours, QRT-PCR
CD34+ cells = assay: Liquid culture of human progenitor cells (polyploidization, CD41/CD61 expression); type: cell-based; conditions: CD34+ cells in cytokines, 7-10 days
Procedure: Normal human progenitor cells (CD34+) were used to evaluate capability of Compound A to stimulate proliferation and differentiation of megakaryocytes. CD34+ cells were plated in fibrin clots and cultured for 10 days, after which time colonies were fixed and stained with antibody specific for megakaryocytic marker CD41. […] CD34+ cells were incubated in cytokines with rhTPO or Compound A for periods of 7-10 days, after which time cells in culture were examined for degree of polyploidization, and expression of megakaryocyte lineage markers CD41 and CD61.

[6] = system: p70S6 kinase and ribosomal kinase S6 in primary AML cells; assay: Western blot of p70S6 and S6 kinase phosphorylation in primary AML cells; type: cell-based, human; conditions: primary AML samples, 3 hours; SB559457 5 μM, Tpo 2.86 μM
Procedure: as §1, §2
In an effort to establish a correlation between cell signaling and array data, phosphorylation of kinases involved in Tpo signaling pathway in primary leukemia cells was examined. […]

[7] = system: STAT5, ERK, p70S6 kinases and S6 ribosomal protein in N2C-TPO cells; assay: Rescue of kinase phosphorylation in N2C-TPO cells (rhTPO plus Compound A); type: cell-based; conditions: rhTPO first then Compound A, or the reverse
Procedure: as §1, §2
In an effort to address these possibilities, similar rescue experiments were performed on N2C-TPO cells while evaluating phosphorylation of kinases involved in TPO pathway.

[8] = system: primary leukemia cells from patients with acute myelogenous leukemia (AML); assay: Proliferation of primary AML cells; type: cell-based, human
Procedure: as §5, §6
Further the effect of various doses of Compound A (1 μM, 2.5 μM and 5 μM) on AML samples was examined. This experiment was performed on 6 different samples. […] In the remaining 3 samples, doses of 1 μM and 2.5 μM Compound A had no effect on cell proliferation and survival.

human CD34+ cells = assay: Megakaryocyte colony forming assay; type: cell-based; conditions: Compound A 5 μM vs rhTPO 100 ng/ml; fibrin clots, 10 days, CD41 stain
Procedure: Normal human progenitor cells were plated in fibrinogen clots at a density of 5000 CD34+ cells per ml. Fibrinogen clots were prepared as follow: cells were re-suspended in IMDM medium supplemented with sodium bicarbonate (3 mg/ml); 3-mercapto-1-2propanediol (0.002%); transferring (300 μg/ml); CaCl2(37 μg/ml); fatty acid free, deionized BSA (10%); insulin (20 μg/ml); cholesterol (5.6 μg/ml) cytokines: IL-3 (10 ng/ml), SCF (10 ng/ml) and rhTPO (100 ng/ml equal 2.8 μM) or Compound A (5 μM). Then clotting mix containing fibrinogen (0.2%) and thrombin (0.2 u/ml). Cells were plated on 35 mm culture dishes and cultured in humidified incubator at 37° C. and 5% CO2. After 10 days, colonies were fixed and stained for megakaryocyte marker CD41a with fluorescently labeled antibody. Megakaryocyte colonies were counted using inverted fluorescent microscope.
Normal human progenitor cells (CD34+) were used to evaluate capability of Compound A to stimulate proliferation and differentiation of megakaryocytes. CD34+ cells were plated in fibrin clots and cultured for 10 days, after which time colonies were fixed and stained with antibody specific for megakaryocytic marker CD41. […]

[9] = system: STAT5, ERK, p70S6, ribosomal kinase S6 in N2C-TPO cells; assay: Western blot analysis of kinase phosphorylation in N2C-TPO cells; type: cell-based; conditions: 10 or 30 minutes
Procedure: as §1, §2
The effect of Compound A on phosphorylation of kinases known to be important in the Tpo signaling pathway was examined. Kinases evaluated include STAT5, ERK, p70S6, and ribosomal kinase S6. […]

[10] = system: cells obtained from AML patients; assay: Rescue proliferation assay: rhTPO plus Compound A on AML cells; type: cell-based, human
Procedure: Proliferation assays were performed on cells obtained from 6 AML patients. In some experiments, cells were first exposed to Compound A and then stimulated with rhTPO five minutes later. To avoid the possibility of all receptors being occupied by Compound A and therefore preventing rhTPO from binding, other experiments were also performed by first stimulating the cells with rhTPO followed by exposure to Compound A 5 minutes later.

[11] = system: primary cells from patients with acute lymphocytic leukemia (ALL); assay: Proliferation of primary ALL cells; type: cell-based, human; conditions: ALL patient samples
Procedure: as §5, §6

N2C-TPO cells = assay: Proliferation of TPO dependent cell line N2C-TPO; type: cell-based
Procedure: N2C-TPO cells were derived by culture of a megakaryblastic cell line in rhTpo for 10 weeks and provided by Glaxo SmithKline Pharmaceuticals (Collegeville, Pa.). N2C-TPO cells were cultured in RPMI (Invitrogen, Carlsbad, Calif.) medium supplemented with 10% Animal Serum Complex—Fetalplex (Gemini Bio-Products, West Sacramento, Calif.), 0.5% Penicillin/Streptomycin (Invitrogen; Carlsbad, Calif.) and 20 ng/ml rhTPO.
In order to determine if Compound A has the ability to function as a thrombopoietin receptor (TpoR) agonist and stimulate proliferation and differentiation of human megakaryocytes, a number of cell culture experiments were performed using the Tpo dependent cell line (N2C-TPO) as well as normal human CD34+ cells. […] Consequently the 5 μM dose was used in further experiments where properties of rhTPO versus Compound A were directly compared.

Row | Compound | ERK, p70S6 and S6 ribosomal protein phosphorylation [1] | phosphorylation of STAT5 [1] | Annexin V and PI positive cells (apoptosis) [2] | effect on cell proliferation / growth or viability [3] | cellular apoptosis [4] | expression of GAPDH relative to cells treated with rhTpo [5] | cells expressing megakaryocyte markers CD41 and CD61 (CD34+ cells) [%] | cells with greater than 4N DNA content (CD34+ cells) [%] | phosphorylation of p70S6 kinase at Thr421/Ser424 and ribosomal kinase S6 [6] | phosphorylation of STAT5, ERK, p70S6 kinases and S6 ribosomal protein with rhTPO plus Compound A [7] | effect on cell proliferation and survival ([8]; 1 μM and 2.5 μM, remaining 3 of 6 AML samples) | leukemia cell growth and proliferation ([8]; 5 μM, remaining 3 of 6 AML samples) | effect on cell proliferation ([8]; 1 and 2.5 μM, 3 of 6 AML samples) | inhibition of cell proliferation ([8]; 17 out of 18 AML samples, vs untreated controls or cells cultured with rhTPO) | number of megakaryocyte colonies compared to rhTPO (human CD34+ cells) | phosphorylation of STAT5, ERK, p70S6 and ribosomal kinase S6 [9] | rescue of AML cell survival by rhTPO ([10]; samples 794 and 332, rhTPO added with Compound A) | rescue of AML cell survival by rhTPO ([10]; samples 857, 774, 759, 342, rhTPO added 5 minutes before or after Compound A) | effect on cell proliferation / growth or viability [11] | concentration of maximal effects on cell proliferation (N2C-TPO cells) [µM]
1 | CC1=NN(c2ccc(C)c(C)c2)C(=O)/C1=N\Nc1cc(F)cc(-c2cccc(C(=O)O)c2)c1O [Compound A, 3′-{N′-[1-(3,4-dimethylphenyl)-3-methyl-5-oxo-1,5-dihydropyrazol-4-ylidene]hydrazine}-5′-fluoro-2′-hydroxybiphenyl-3-carboxylic acid] | activation | only cells exposed to rhTPO | increase in Annexin V and PI positive cells | No significant effects | No significant increases in cellular apoptosis | at least two times higher | 35 | 14 | high phosphorylation | rescue of phosphorylation | no effect | inhibited leukemia cell growth and proliferation | had an effect on cell proliferation | 70-90% | slightly lower | none of those kineses were activated | adding rhTPO did attenuate the Compound A effect | not rescued | No significant effects | 5 to 10
2 | rhTPO: Full length recombinant human thrombopoietin (rhTPO) obtained from R&D Systems | activation | stimulated phosphorylation of STAT5 |  |  |  |  |  | 8 | none or very little phosphorylation |  |  |  |  |  |  | high phosphorylation level |  |  |  | 
